Ki data for 8 compounds are collected here from patent US8158785B2, “5,7-disubstituted[1.3]thiazolo [4,5-D] pyrimidin-2(3H)-amine derivatives and their use in therapy” (AstraZeneca AB, priority 2006, dated 2012).

This test deals with T1, hCX3CR1 (Homo sapiens, UniProt P49238).
T1 construct: expressed in transfected cells; host or cells: HEKS 293 (human embryonic kidney suspension) cells stably expressing chimeric G-protein Gαqi5
T1 sequence (P49238 1-355): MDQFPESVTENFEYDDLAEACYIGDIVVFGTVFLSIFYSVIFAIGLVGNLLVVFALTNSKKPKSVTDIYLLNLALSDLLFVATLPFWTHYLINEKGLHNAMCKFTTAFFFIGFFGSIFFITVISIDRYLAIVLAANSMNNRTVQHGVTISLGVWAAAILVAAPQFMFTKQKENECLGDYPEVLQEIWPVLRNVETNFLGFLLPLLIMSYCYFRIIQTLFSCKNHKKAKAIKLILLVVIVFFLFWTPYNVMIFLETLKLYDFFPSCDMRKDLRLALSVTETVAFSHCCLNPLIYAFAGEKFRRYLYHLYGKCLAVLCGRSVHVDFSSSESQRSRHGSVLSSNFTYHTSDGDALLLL
Kind of test: in vitro hCX3CR1 binding assay ([125I]-fractalkine competition binding, membranes). Conditions: competition with 10 pM [125I]-fractalkine, membranes of HEKS 293 cells expressing hCX3CR1, 25° C., 24 h. As to the method: The complete human CX3CR1 cDNA (GenBank accession number U20350) was extracted from human brain mRNA (Superscript, Life Technologies) and ligated into pCR-Blunt II TOPO vector (InVitrogen). The insert corresponding hCX3CR1 was isolated and further subcloned into pcDNA3.1zeo. Plasmid DNA was prepared using Plasmid Midi Kit (Qiagen). Using Superfect Transfection Reagent (Qiagen) according to the manufacturer's protocol the expression plasmid for hCX3CR1 was then introduced into human embryonic kidney suspension (HEKS) 293 cell line containing a vector for stable expression of a chimeric G-protein Gαqi5. A stable clone was generated utilizing zeocin (500 μg/mL) and hygromycin (100 μg/mL) selection. For further applications the cells were maintained in Dulbecco's modified Eagle's medium/Ham's nutrient mix F12 (DMEM/F12) containing pyridoxine and supplemented with 10% (v/v) fetal bovine serum, 2 mM L-glutamine, 100 U/ml penicillin and […] streptomycin, 250 μg/mL zeocin and 100 μg/mL hygromycin.
Cells are grown at 37° C. and 5% CO2 and harvested at 60-80% confluence in buffer containing 10 mM Tris-HCl pH 7.4, 5 mM EDTA, 0.1 mg/mL bacitracin. The cells are centrifuged at 300×g for 10 min and the pellet is resuspended in harvesting buffer (10 mM Tris-HCl, pH 7.4, 5 mM ethylenediaminetetra-aceticacid (EDTA) and 0.1 mg/mL bacitracin), pooled and homogenised using a Dounce homogeniser. The homogenate is centrifuged in 48000×g for 10 min and resuspended in harvesting buffer using Ultra-Turrax T8. Membrane aliquots are stored at −80° C. Protein concentration was determined in microtiter plates as described by Harrington (1990, Anal. Biochem. 186, 285-287).
Competition binding studies of [^125I]fraktalkine were performed in 2 mL 96-deep-well plates (Beckman, Germany) in a total volume of 1000 μL/well. Each well contained 10 pM [^125I]-fractalkine and membrane equivalent to receptor concentration of 1 pM in assay buffer (50 mM Hepes-KOH, pH 7.4, 10 mM MgCl2, 1 mM EDTA, 0.1% (w/v) gelatine). Ten concentrations (2 points/log unit) of the test compounds were pre-dissolved in DMSO and added to reach a final concentration of 1% (v/v) DMSO. The assay was initiated with the addition of membranes and incubated at 25° C. for 24 h. The reactions were stopped by rapid filtration through Whatman GF/B glass fiber filters pretreated with 0.3% polyethylimine and subsequent washing with ice-cold buffer (10 mM Hepes-KOH pH 7.4, 500 mM NaCl) using a Brandel receptor binding harvester. Scintillation cocktail was added and radioactivity was determined in a Packard 2500TR liquid scintillation counter. (Perkin Elmer, USA)

pKi: −log10 of the molar value.

`CC(C)C[C@H](CO)Nc1nc(SC(C)c2ccc(F)cn2)nc2nc(N)sc12` (mixture of isomers) [Example 1, (2R)-2-[(2-Amino-5-{[1-(5-fluoropyridin-2-yl)ethyl]thio}[1,3]thiazolo[4,5-d]pyrimidin-7-yl)amino]-4-methylpentan-1-ol] gave a pKi of 7.68. Consider `CC(C)C[C@H](CO)Nc1nc(S[C@@H](C)c2ccc(F)cn2)nc2nc(N)sc12` (single isomer, unassigned) [Example 3], for which the pKi was 8.19.

`CC(C)C[C@H](CO)Nc1nc(S[C@@H](C)c2ccc(Cl)cn2)nc2nc(N)sc12` [Example 2, (2R)-2-[(2-Amino-5-{[(1S)-1-(5-chloropyridin-2-yl)ethyl]thio}[1,3]thiazolo[4,5-d]pyrimidin-7-yl)amino]-4-methylpentan-1-ol] showed a pKi of 8.21. As for `CC(C)C[C@H](CO)Nc1nc(S[C@@H](C)c2ncccc2F)nc2nc(N)sc12` [Example 5, (2R)-2-[(2-Amino-5-{[(1S)-1-(3-fluoropyridin-2-yl)ethyl]thio}[1,3]thiazolo[4,5-d]pyrimidin-7-yl)amino]-4-methylpentan-1-ol], the pKi was 7.64.

Compound `CCC[C@H](CO)N(C)c1nc(S[C@@H](C)c2ccc(Cl)nc2)nc2nc(N)sc12` [Example 6, (2R)-2-[(2-amino-5-{[(1S)-1-(6-chloropyridin-3-yl)ethyl]thio}[1,3]thiazolo[4,5-d]pyrimidin-7-yl)(methyl)amino]pentan-1-ol] gave a pKi of 6.69. Turning to `CCC[C@H](CO)Nc1nc(S[C@@H](C)c2ccc(Cl)nc2)nc2nc(N)sc12` [Example 7, (2R)-2-[(2-Amino-5-{[(1S)-1-(6-chloropyridin-3-yl)ethyl]thio}[1,3]thiazolo[4,5-d]pyrimidin-7-yl)amino]pentan-1-ol], the pKi is 6.83. In turn, `CC(C)C[C@H](CO)Nc1nc(S[C@@H](C)c2cc(C#N)ccn2)nc2nc(N)sc12` [Example 8, 2-{(1S)-1-[(2-Amino-7-{[(1R)-1-(hydroxymethyl)-3-methylbutyl]amino}[1,3]thiazolo[4,5-d]pyrimidin-5-yl)thio]ethyl}isonicotinonitrile] showed a pKi of 7.09. With `CC(C)C[C@H](CO)Nc1nc(S[C@@H](C)c2ccncc2Cl)nc2nc(N)sc12` [Example 9b, (2R)-2-[(2-amino-5-{[(1S)-1-(3-chloropyridin-4-yl)ethyl]thio}[1,3]thiazolo[4,5-d]pyrimidin-7-yl)amino]-4-methylpentan-1-ol], the pKi is 7.46.

One may read the pKi as the Ki on a negative log10 scale, so that one unit is a factor of ten. Read a high pKi as a low Ki.
